Measurements reported in US6489098B1, “Means and methods for monitoring nucleoside reverse transcriptase inhibitor antiretroviral therapy and guiding therapeutic decisions in the treatment of HIV/AIDS” (ViroLogic, Inc., priority 1998, dated 2002).

Test system: HIV-1 RT mutant resistance test vector 41 + 210 + 215
Assay: Phenotypic susceptibility assay, site directed RTV 41 + 210 + 215
Assay type: cell-based
Settings: RTV with 41 + 210 + 215; 3 replicates
Description: (§1) Resistance tests were carried out with resistance test vectors using two host cell types. Resistance test vector viral particles were produced by a first host cell (the resistance test vector host cell) that was prepared by transfecting a packaging host cell with the resistance test vector and the packaging expression vector. The resistance test vector viral particles were then used to infect a second host cell (the target host cell) in which the expression of the indicator gene is measured.
(§2) The resistance test vectors containing a functional luciferase gene cassette were constructed and host cells were transfected with the resistance test vector DNA. The resistant test vectors contained patient-derived reverse transcriptase and protease sequences that were either susceptible or resistant to the antiretroviral agents, such as nucleoside reverse transcriptase inhibitors, non-nucleoside reverse transcriptase inhibitors and protease inhibitors. The resistance test vector viral particles produced by transfecting the resistance test vector DNA into host cells, either in the presence or absence of protease inhibitors, were used to infect target host cells grown either in the absence of NRTI or NNRTI or In the presence of increasing concentrations of the drug. The amount of luciferase activIty produced in infected target host cells in the presence of drug was compared to the amount of luciferase produced in infected target host cells in the absence of drug. Drug resistance was measured as the amount of drug required to inhibit by 50% the luciferase activity detected in the absence of drug (Inhibitory concentration 50%, IC50). The IC50 values were determined by plotting percent drug inhibition vs. log 10 drug concentration.
(§3) Host cells were seeded in 10-cm-diameter dishes and were transfected several days after plating with resistance test vector plasmid DNA and the envelope expression vector. Transfections were performed using a calcium-phosphate precipitation procedure. The cell culture media containing the DNA precipitate was replaced with fresh medium, from one to 24 hours, after transfection. Cell culture media containing resistance test vector viral particles was harvested one to four days after transfection and was passed through a […] filter before being stored at −80° C. HIV capsid protein (p24) levels in the harvested cell culture media were determined by an EIA method as described by the manufacturer (SIAC; Frederick, Md.). Before infection, target cells (293 and 293/T) were plated in cell culture media. Control infections were performed using cell culture media from mock transfections (no DNA) or transfections containing the resistance test vector plasmid DNA without the envelope expression plasmid. One to three or more days after infectIon the media was removed and cell lysis buffer (Promega) was added to each well. Cell lysates were assayed for luciferase activity (FIG. 3). The inhibitory effect of the drug was determined using the following equation:
(§4) % luciferase inhibition=1−(RLUluc[drug]÷RLUluc)×100
(§5) where RLUluc [drug] is the relative light unit of luciferase activity in infected cells in the presence of drug and RLUluc is the Relative Light Unit of luciferase activity in infected cells in the absence of drug. IC50 values were obtained from the sigmoidal curves that were generated from the data by plotting the percent inhibition of luciferase activity vs. the log 10 drug concentration. The drug inhibition curves are shown in (FIG. 3).
(§6) Genotypic changes that are observed to correlate with changes in phenotypic patterns of drug susceptibility are evaluated by construction of resistance test vectors containing the specific mutation on a defined, wild-type (drug susceptible) genetic background. Mutations may be incorporated alone and/or in combination with other known drug resistance mutations that are thought to modulate the susceptibility of HIV to a certain drug or class of drugs. […]

Going from `Nc1ccn([C@H]2CC[C@@H](CO)O2)c(=O)n1` [ddC, zalcitabine] to `O=c1[nH]cnc2c1ncn2[C@H]1CC[C@@H](CO)O1` [ddI, didanosine], the “Average fold reduction in susceptibility” value falls from 1.36 fold to 1.08 fold.

In the case of `Nc1nc(NC2CC2)c2ncn([C@H]3C=C[C@@H](CO)C3)c2n1` [ABC, abacavir], the “Average fold reduction in susceptibility” value is reported as 2.25 fold.

Test system: HIV-1 RT mutant resistance test vector 41 + 62 + 69 + 75S + 210 + 215
Assay: Phenotypic susceptibility assay, site directed RTV 41 + 62 + 69 + 75S + 210 + 215
Assay type: cell-based
Settings: RTV with 41 + 62 + 69 + 75S + 210 + 215; 1 replicate
Description: as §1, §2, §3, §4, §5, §6

Compared with `Nc1ccn([C@H]2CC[C@@H](CO)O2)c(=O)n1` [ddC, zalcitabine], `O=c1[nH]cnc2c1ncn2[C@H]1CC[C@@H](CO)O1` [ddI, didanosine] is higher in “Average fold reduction in susceptibility” value: 2.58 fold for the first, 5.12 fold for the second.

For `Nc1nc(NC2CC2)c2ncn([C@H]3C=C[C@@H](CO)C3)c2n1` [ABC, abacavir], the “Average fold reduction in susceptibility” value was 14.21 fold.

Test system: HIV-1 RT mutant resistance test vector 41 + 184 + 215
Assay: Phenotypic susceptibility assay, site directed RTV 41 + 184 + 215
Assay type: cell-based
Settings: RTV with 41 + 184 + 215; 3 replicates
Description: as §1, §2, §3, §4, §5, §6

First: Nc1ccn([C@H]2CC[C@@H](CO)O2)c(=O)n1 [ddC, zalcitabine]
Second: O=c1[nH]cnc2c1ncn2[C@H]1CC[C@@H](CO)O1 [ddI, didanosine]
The “Average fold reduction in susceptibility” value of the first is higher: 1.73 fold for the first, 1.35 fold for the second.

With `Nc1nc(NC2CC2)c2ncn([C@H]3C=C[C@@H](CO)C3)c2n1` [ABC, abacavir] the “Average fold reduction in susceptibility” value was 3.02 fold.

Test system: HIV-1 RT mutant resistance test vector 41 + 215 (M41L and T215Y)
Assay: Phenotypic susceptibility assay, site directed RTV 41 + 215
Assay type: cell-based
Settings: RTV with 41 + 215; 4 replicates
Description: as §1, §2, §3, §4, §5, §6

First: Nc1ccn([C@H]2CC[C@@H](CO)O2)c(=O)n1 [ddC, zalcitabine]
Second: O=c1[nH]cnc2c1ncn2[C@H]1CC[C@@H](CO)O1 [ddI, didanosine]
The “Average fold reduction in susceptibility” value of the first is higher: 1.21 fold for the first, 1.09 fold for the second.

With `Nc1nc(NC2CC2)c2ncn([C@H]3C=C[C@@H](CO)C3)c2n1` [ABC, abacavir] the “Average fold reduction in susceptibility” value was 1.68 fold.

Test system: HIV-1 RT mutant resistance test vector M41L-A62V-T69SSA-T215Y-RTV
Assay: Phenotypic susceptibility assay, site directed RTV M41L+A62V+T69SSA+T215Y
Assay type: cell-based
Settings: RTV with M41L+A62V+T69SSA+T215Y; addition of A62V to M41L+T69SSA+T215Y
Description: as §1, §2
as §3, with “Cell lysates were assayed for luciferase activity (FIG. 3).” left out
as §4
as §5, with “concentration.” for “concentration. The drug inhibition curves are shown in (FIG. 3).”
Mutations may be incorporated alone and/or in combination with other known drug resistance mutations that are thought to modulate the susceptibility of HIV to a certain drug or class of drugs. Mutations are introduced into the resistance test vector through any of the widely known methods for site-directed mutagenesis. In one embodiment of this invention the mega-primer PCR method for site-directed mutagenesis is used.

In the case of `Nc1ccn([C@H]2CC[C@@H](CO)O2)c(=O)n1` [ddC, zalcitabine], the “effect on susceptibility (words)” value is reported as “no effect on susceptibility”.
For `O=c1[nH]cnc2c1ncn2[C@H]1CC[C@@H](CO)O1` [ddI, didanosine], the “effect on susceptibility (words)” value was “further reduction in susceptibility”.
In the case of `Nc1nc(NC2CC2)c2ncn([C@H]3C=C[C@@H](CO)C3)c2n1` [ABC, abacavir], the “effect on susceptibility (words)” value is reported as “no effect on susceptibility”.

Test system: HIV-1 RT mutant resistance test vector M41L+A62V+T69SSA+M184V+T215Y
Assay: Phenotypic susceptibility assay, site directed RTV M41L+A62V+T69SSA+M184V+T215Y
Assay type: cell-based
Settings: RTV with 41 + 62 + 69 + 184 + 215; 2 replicates
Description: as §1, §2, §3, §4, §5, §6

Going from `Nc1ccn([C@H]2CC[C@@H](CO)O2)c(=O)n1` [ddC, zalcitabine] to `O=c1[nH]cnc2c1ncn2[C@H]1CC[C@@H](CO)O1` [ddI, didanosine], the “Average fold reduction in susceptibility” value falls from 2.90 fold to 2.55 fold.

In the case of `Nc1nc(NC2CC2)c2ncn([C@H]3C=C[C@@H](CO)C3)c2n1` [ABC, abacavir], the “Average fold reduction in susceptibility” value is reported as 11.73 fold.

Same assay, conditions: RTV with M41L+A62V+T69SSA+M184V+T215Y; addition of M184V to the 4 mutations

For `Nc1ccn([C@H]2CC[C@@H](CO)O2)c(=O)n1` [ddC, zalcitabine], the “effect on susceptibility (words)” value was “no effect on susceptibility to ddC or abacavir”.
In the case of `O=c1[nH]cnc2c1ncn2[C@H]1CC[C@@H](CO)O1` [ddI, didanosine], the “effect on susceptibility (words)” value is reported as “more susceptible”.
For `Nc1nc(NC2CC2)c2ncn([C@H]3C=C[C@@H](CO)C3)c2n1` [ABC, abacavir], the “effect on susceptibility (words)” value was “no effect on susceptibility to ddC or abacavir”.

Test system: HIV-1 RT mutant resistance test vector A62V+T69SSA
Assay: Phenotypic susceptibility assay, site directed RTV A62V+T69SSA
Assay type: cell-based
Settings: RTV with 62 + 69 (A62V+T69SSA); 4 replicates
Description: as §1, §2, §3, §4, §5, §6

Going from `Nc1ccn([C@H]2CC[C@@H](CO)O2)c(=O)n1` [ddC, zalcitabine] to `O=c1[nH]cnc2c1ncn2[C@H]1CC[C@@H](CO)O1` [ddI, didanosine], the “Average fold reduction in susceptibility” value falls from 1.74 fold to 1.54 fold.

For `Nc1nc(NC2CC2)c2ncn([C@H]3C=C[C@@H](CO)C3)c2n1` [ABC, abacavir], the “Average fold reduction in susceptibility” value was 2.71 fold.

Test system: HIV-1 RT mutant resistance test vector 41 + 69 + 184 + 215
Assay: Phenotypic susceptibility assay, site directed RTV 41 + 69 + 184 + 215
Assay type: cell-based
Settings: RTV with 41 + 69 + 184 + 215; 2 replicates
Description: as §1, §2, §3, §4, §5, §6

First: Nc1ccn([C@H]2CC[C@@H](CO)O2)c(=O)n1 [ddC, zalcitabine]
Second: O=c1[nH]cnc2c1ncn2[C@H]1CC[C@@H](CO)O1 [ddI, didanosine]
The “Average fold reduction in susceptibility” value of the first is higher: 3.48 fold for the first, 2.28 fold for the second.

In the case of `Nc1nc(NC2CC2)c2ncn([C@H]3C=C[C@@H](CO)C3)c2n1` [ABC, abacavir], the “Average fold reduction in susceptibility” value is reported as 11.56 fold.

Test system: HIV-1 RT mutant resistance test vector A62V+T69SSA+V75I
Assay: Phenotypic susceptibility assay, site directed RTV A62V+T69SSA+V75I
Assay type: cell-based
Settings: RTV with 62 + 69 + 751 (A62V, T69SSA, V75I); 1 replicate
Description: as §1, §2, §3, §4, §5, §6

Going from `Nc1ccn([C@H]2CC[C@@H](CO)O2)c(=O)n1` [ddC, zalcitabine] to `O=c1[nH]cnc2c1ncn2[C@H]1CC[C@@H](CO)O1` [ddI, didanosine], the “Average fold reduction in susceptibility” value falls from 1.89 fold to 1.17 fold.

With `Nc1nc(NC2CC2)c2ncn([C@H]3C=C[C@@H](CO)C3)c2n1` [ABC, abacavir] the “Average fold reduction in susceptibility” value was 2.56 fold.

Test system: HIV strains resistant to abacavir
Assay: not given
Settings: cited from earlier work

For `Nc1ccn([C@H]2CC[C@@H](CO)O2)c(=O)n1` [ddC, zalcitabine], the “cross resistance of abacavir-resistant strains” value is given as “Cross resistance”.
For `O=c1[nH]cnc2c1ncn2[C@H]1CC[C@@H](CO)O1` [ddI, didanosine], the “cross resistance of abacavir-resistant strains” value is given as “Cross resistance”.

Same assay, conditions: multiple mutations (at least three); cited from earlier work

For `Nc1nc(NC2CC2)c2ncn([C@H]3C=C[C@@H](CO)C3)c2n1` [ABC, abacavir], the fold resistance is listed as 10 fold.
